The subject of data set [1] is Staphylococcus aureus. Nature of the data set: Antibacterial activity against Staphylococcus aureus ATCC25923 assessed as reduction in bacterial growth by broth microdilution assay. Format: functional.
Data set [2] concerns Staphylococcus aureus. Nature of the data set: Antibacterial activity against Staphylococcus aureus ATCC31007 assessed as reduction in bacterial growth by broth microdilution assay. Format: functional. For orientation: In broth dilution the organism is exposed to a series of concentrations in liquid medium.
In data set [3] the test system is Staphylococcus aureus. Nature of the data set: Antibacterial activity against […] Staphylococcus aureus ATCC43300 assessed as reduction in bacterial growth by broth microdilution assay. Format: functional.
Data set [4] relates to Bacillus subtilis. Put plainly: Antibacterial activity against […] Bacillus subtilis ATCC9372 assessed as reduction in bacterial growth by broth microdilution assay. Type of data set: functional.
In data set [5] the test system is Enterococcus faecalis. Put plainly: Antibacterial activity against penicillin-susceptible Enterococcus faecalis ATCC29212 assessed as reduction in bacterial growth by broth microdilution assay. Format: functional.
Data set [6] has as its system Staphylococcus epidermidis. Nature of the data set: Antibacterial activity against vancomycin-susceptible Staphylococcus epidermidis ATCC12228 assessed as reduction in bacterial growth by broth microdilution assay. Type of data set: functional.
Data set [7] relates to Klebsiella pneumoniae. Put plainly: Antibacterial activity against erythromycin-susceptible Klebsiella pneumoniae ATCC10031 assessed as reduction in bacterial growth by broth microdilution assay. Format: functional.
In data set [8] the test system is Acinetobacter baumannii. Nature of the data set: Antibacterial activity against Acinetobacter baumannii ATCC19606 assessed as reduction in bacterial growth by broth microdilution assay. Type of data set: functional.
The test system of data set [9] is Escherichia coli. Nature of the data set: Antibacterial activity against Escherichia coli ATCC25922 assessed as reduction in bacterial growth by broth microdilution assay. Format: functional.
Data set [10] deals with Pseudomonas aeruginosa. Put plainly: Antibacterial activity against penicillin-susceptible Pseudomonas aeruginosa ATCC27853 assessed as reduction in bacterial growth by broth microdilution assay. Format: functional.
The nature of data set [11]: Hemolytic activity in RBC (unknown origin) assessed as hemolysis. Type of data set: toxicity, cell-based.
The subject of data set [12] is Staphylococcus aureus. Put plainly: Bactericidal activity against Staphylococcus aureus ATCC43300 at 2 to 16 ug/ml by time kill assay. Type of data set: functional, organism-based. The settings on record: dose 2-16 µg/ml, time <= 12.0 hrs.
The subject of data set [13] is Staphylococcus aureus. Nature of the data set: Bactericidal activity against Staphylococcus aureus ATCC43300 measured upto 12 hrs by time kill assay. Format: functional, organism-based. To be noted: dose 2-16 µg/ml.
For data set [14], the system named is Staphylococcus aureus. Nature of the data set: Bactericidal activity against Staphylococcus aureus ATCC43300 assessed as log reduction in CFU at 16 ug/ml by time kill assay. Type of data set: functional. The settings on record: dose 16 µg/ml.
Data set [15] deals with Staphylococcus aureus. Nature of the data set: Bactericidal activity against Staphylococcus aureus ATCC43300 assessed as reduction in bacterial count at 16 ug/ml measured within 4 hrs by time kill assay relative to control. Format: functional. To be noted: dose 16 µg/ml. On the set-up: scale not given: the % may be the effect or the level left.
Data set [16] has as its system Staphylococcus aureus. Nature of the data set: Bactericidal activity against Staphylococcus aureus ATCC43300 assessed as eradication of bacterial cell at 16 ug/ml measured within 8 hrs by time kill assay relative to control. Type of data set: functional. To be noted: dose 16 µg/ml.
In data set [17] the test system is Staphylococcus aureus. Put plainly: Antibacterial activity against Staphylococcus aureus ATCC43300 measured after 20 passages. Format: functional, organism-based.
For data set [18], the system named is Staphylococcus aureus. Put plainly: Drug resistance, ratio of MIC for Staphylococcus aureus ATCC43300 after 20 passages exposure to MIC for Staphylococcus aureus ATCC43300 after first exposure. Format: functional.
Data set [19] has as its system Cell membrane. Put plainly: Disruption of cell membrane integrity in Staphylococcus aureus ATCC43300 assessed as red fluorescence by DAPI staining based fluorescence assay. Format: subcellular.
The subject of data set [20] is Cell membrane. Nature of the data set: Disruption of cell membrane integrity in Staphylococcus aureus ATCC43300 assessed as blue fluorescence by DAPI staining based fluorescence assay. Format: subcellular.
Data set [21] has as its system Cell membrane. Put plainly: Induction of cytoplasmic membrane depolarization in Staphylococcus aureus ATCC43300 assessed as fold increase in fluorescence signal at 16 ug/ml measured at 20 mins DiSC3(5) dye-based fluorescence assay. Type of data set: subcellular. The settings on record: dose 16.0 µg/ml.
For data set [22], the system named is Cell membrane. Put plainly: Induction of cytoplasmic membrane depolarization in Staphylococcus aureus ATCC43300 assessed as fold increase in fluorescence signal measured upto 20 mins DiSC3(5) dye-based fluorescence assay. Format: subcellular. The settings on record: dose 2-16 µg/ml.
Data set [23] relates to Cell membrane. Put plainly: Induction of cell membrane permeabilization in Staphylococcus aureus ATCC43300 assessed as increase in fluorescence intensity by propidium iodide dye-based fluorescence assay. The settings on record: dose 2-16 µg/ml. Format: subcellular.
Data set [24] deals with Cell membrane. Put plainly: Induction of cell membrane permeabilization in Staphylococcus aureus ATCC43300 assessed as fold increase in fluorescence intensity at 16 ug/ml by propidium iodide dye-based fluorescence assay. Format: subcellular. The settings on record: dose 16.0 µg/ml.
Data set [25] has as its system Cell membrane. Put plainly: Induction of cell membrane disruption in Staphylococcus aureus ATCC43300 assessed as increase in protein leakage. Type of data set: subcellular. To be noted: dose 2-16 µg/ml.
For data set [26], the system named is Cell membrane. Put plainly: Induction of cell membrane disruption in Staphylococcus aureus ATCC43300 assessed as increase in DNA leakage. Type of data set: subcellular. The settings on record: dose 2-16 µg/ml.
Data set [27] concerns Cell membrane. Put plainly: Induction of cell membrane disruption in Staphylococcus aureus ATCC43300 assessed as fold increase in protein leakage at 16 ug/ml. Type of data set: subcellular. To be noted: dose 16.0 µg/ml.
For data set [28], the system named is Cell membrane. Put plainly: Induction of cell membrane disruption in Staphylococcus aureus ATCC43300 assessed as fold increase in DNA leakage at 16 ug/ml. Format: subcellular. The settings on record: dose 16.0 µg/ml.
For data set [29], the system named is Staphylococcus aureus. Put plainly: Drug resistance, ratio of MIC for Staphylococcus aureus ATCC43300 after 18 passages exposure to MIC for Staphylococcus aureus ATCC43300 after first exposure. Type of data set: functional.

Converted amounts (≈) assume the structure as drawn. The source made the active and inactive calls. The rule behind the calls is not given here.

By MIC is commonly meant the least concentration at which growth counts as inhibited. The HC50 is the concentration giving 50% haemolysis. Take `CC(=O)c1c(OCC(=O)NCCN(C)C)c2c(c3c1OC(C)(CCC=C(C)C)C=C3)OC(C)(CCC=C(C)C)C=C2` (configuration not stated): the MIC came out at 4 µg/mL (≈ 7.08 µM) in [1]; 2 µg/mL (≈ 3.54 µM) in data set [2]; 2 µg/mL (≈ 3.54 µM) in [3]; 2 µg/mL (≈ 3.54 µM) in data set [4]; 1 µg/mL (≈ 1.77 µM) in data set [5]; 1 µg/mL (≈ 1.77 µM) in [6]. Also, the MIC in data set [7] is more than 128 µg/mL; in data set [8], 128 µg/mL (≈ 227 µM); in [9], more than 128 µg/mL; in [10], more than 128 µg/mL. Moreover, in [11] (rbc), the HC90 was 205.8 µg/mL. For the same compound, in data set [11] (red blood cells), the HC50 amounted to 112 µg/mL. For the same compound, the Activity entry in data set [12] is “Time-dependent-effect”; in [13] it was “Dose-dependent-effect”; in data set [15] it was 99.9%; in data set [16], 100%; in data set [22], “Dose-dependent-effect”; in data set [23], “Dose-dependent-effect”. The Activity entry in data set [25] and in data set [26] was “Dose-dependent-effect” in each case. The “log(activity)” value in [14] was 8.78. In data set [17], the outcome was inactive. Also, the “fold change (FC)” value in data set [18] was found to be 4; in [21] it was 4.7; in data set [24], 2.3; in data set [27], 6.3; in data set [28], 6.7. For the same compound, the result in data set [19] and in data set [20] was Active.
On to `CCn1cc(C(=O)O)c(=O)c2cc(F)c(N3CCNCC3)cc21` [NORFLOXACIN], for which, in [29], the “fold change (FC)” value amounted to 256.
Regarding `CC[C@H](C)[C@H](NC(=O)CN)C(=O)NCC(=O)N[C@@H](C)C(=O)N[C@H](C(=O)N[C@@H](CC(C)C)C(=O)N[C@@H](CCCCN)C(=O)N[C@H](C(=O)N[C@@H](CC(C)C)C(=O)N[C@H](C(=O)N[C@H](C(=O)NCC(=O)N[C@@H](CC(C)C)C(=O)N1CCC[C@H]1C(=O)N[C@@H](C)C(=O)N[C@@H](CC(C)C)C(=O)N[C@H](C(=O)N[C@@H](CO)C(=O)N[C@@H](Cc1c[nH]c2ccccc12)C(=O)N[C@H](C(=O)N[C@@H](CCCCN)C(=O)N[C@@H](CCCNC(=N)N)C(=O)N[C@@H](CCCCN)C(=O)N[C@@H](CCCNC(=N)N)C(=O)N[C@@H](CCC(N)=O)C(=O)N[C@@H](CCC(N)=O)C(N)=O)[C@@H](C)CC)[C@@H](C)CC)[C@@H](C)O)[C@@H](C)O)C(C)C)C(C)C`, the outcome in data set [19] and in [20] was Active.
